# Several values for one entry are separate records, joined by “and”; a condition that tells them apart may be missing. Equal entries are not always repeated.
# Experiments:
# 4T1 breast tumors = test: Solid stress (tumor opening technique); set-up: species or system mice; details: mouse, in vivo
# Source text: FIG. 25 is a bar graph showing that angiotensin inhibitors decrease stress in multiple tumor models. Solid stress levels in tumors after angiotensin inhibition using losartan are shown. […] Animal numbers n=10-11 (4T1 stress), n=4-8 (Pan-02 stress).
# The mechanism responsible for the increase in tumor vessel perfusion by losartan was investigated. Desmoplasia, high stromal cell and matrix density, is a major contributor to the solid stress accumulation that compresses vessels (Stylianopoulos T, et al., Growth-induced mechanical stress in murine and human tumors: causes, consequences and remedies. under review. 2012). […] Moreover, losartan decreased collagen I concentration, measured based on staining intensity, in E0771 and AK4.4 tumors (FIGS. 24B-24C). […] Next, solid stress in these tumors was measured using recently established technique described in Stylianopoulos T, et al., Growth-induced mechanical stress in murine and human tumors: causes, consequences and remedies. under review. […]
# Solid stress: Solid stress was measured using the tumor opening technique as described previously (Stylianopoulos T, et al., Growth-induced mechanical stress in murine and human tumors: causes, consequences and remedies. under review. 2012). […] Subsequently, each tumor was excised, washed with Hanks' Balanced Salt Solution (HBSS) and its three dimensions were measured. […]
# Mu89 tumors = test: Collagen I immunostaining of tumor sections; format: in vivo, SCID mice; details: 20 mg/kg/day, two weeks (FIG. 5D)
# Protocol: (§1) Human soft tissue sarcoma (HSTS26T) and human melanoma (Mu89) tumors were grown subcutaneously in the legs and dorsal skin fold chamber of severe combined immunodeficient (SCID) mice (Leunig M, et al. (1992) Cancer Res 52:6553-6560). Human pancreatic adenocarcinoma cells (L3.6PL) were grown orthotopically in the pancreas of SCID mice. L3.6PL tumors were induced with a sub-capsular injection of one million cells in the tail of the pancreas. Tumor sizes were monitored in spontaneous FVB/N-Tg (MMTV-PyVT) 634MU1/J mice and tumors selected for treatment when they reached a size of 4 to 6 mm in diameter (Guy C T et al. (1992) Mol Cell Biol 12:954-961).
# (§2) Cozaar (losartan potassium) tablets were ground using a mortar and pestle. The powder was then dissolved in water to obtain a concentration of 2.5 mg/ml. The solution was then filtered and stored in a sterile container.
# (§3) Frozen sections were cut into 10 μm sections for immunohistochemistry and imaging. Collagen I was detected using the LF-67 antibody (1:100 dilution) with a previously described protocol (Znati C A, et al. (2003) Clin Cancer Res 9:5508-5513). TSP-1 was detected with a goat anti-human antibody (1:50 dilution), which cross-reacts with mice (sc-12312, Santa Cruz Biotechnology Inc., Santa Cruz, Calif.). For collagen and TSP-1 analysis, images at 20× magnification were taken randomly from each slide. The collagen and TSP-1 content was determined by measuring the number of pixels above a threshold value that was set based on the average intensity value of pixels from all slides under analysis. The background-signal intensity for both collagen I and thrombospondin-1 immunostaining was low and uniform.
# [1] = system: L3.6 pl orthotopic pancreatic tumors; test: Collagen I immunostaining of tumor sections; format: in vivo, SCID mice; details: 20 mg/kg/day, two weeks (FIG. 5B)
# Protocol: as §1, §2, §3
# HSTS26T tumors = test: Collagen I immunostaining of tumor sections; format: in vivo, SCID mice
# Protocol: as §1, §2, §3
# [2] = Mean arterial blood pressure (MABP) in mice
# Protocol: In the following Examples, 20 mg/kg/day dose was used (but it by no means limits the use of other doses in the methods described herein).
smiles,measurement,setting,value
CCCCc1nc(Cl)c(CO)n1Cc1ccc(-c2ccccc2-c2nn[nH]n2)cc1 [losartan],solid stress,4T1 breast tumors,reduces solid stress
same,reduction in collagen I immunostaining,Mu89 tumors,20%
same,reduction in collagen I immunostaining,[1],50%
same,reduction in collagen I immunostaining,"HSTS26T tumors; 20 mg/kg/day, dose response (FIG. 3), vs saline",42%
same,reduction in collagen I immunostaining,"HSTS26T tumors; 20 mg/kg/day, two weeks (FIG. 5D)",44%
same,reduction in collagen I immunostaining,"HSTS26T tumors; 60 mg/kg/day, dose response (FIG. 3), vs saline",63% and 65%
same,reduction in mean arterial blood pressure (MABP),"[2]; 20 mg/kg/day, after 2 weeks",10 mm Hg
same,reduction in mean arterial blood pressure (MABP),[2]; 60 mg/kg/day,35 mm Hg

# Source: patent US20130287688A1, “NOVEL COMPOSITIONS AND USES OF ANTI-HYPERTENSION AGENTS FOR CANCER THERAPY” (XTUIT PHARMACEUTICALS, INC., priority 2010, published 2013)
